Data reported in article PMC11246197 (Journal of medicinal chemistry, 2024).
Like-named read-outs stand apart in the source and are kept apart here.

Experiments:
[1] = system: BEAS-2B cells; type: cell-based, human; conditions: BNPP (CES1 inhibitor) up to 20 μM co-incubated with 10 μM ProTide
[2] = Prodrug hydrolysis in human intestine S9 fractions; type: in vitro ADME; conditions: 15 min incubation
[3] = Prodrug hydrolysis in human liver S9 fractions; type: in vitro ADME; conditions: 15 min incubation
[4] = Plasma PK after oral administration in Ces1c−/− mice; conditions: 54.4 μmole/kg
[5] = biological target: recombinant human CatA (rhCatA) (Homo sapiens, UniProt P10619); assay: Hydrolysis of ProTides by recombinant human CatA; type: biochemical; conditions: 20 μM prodrug, 0.5 ng/μL rhCatA, 10 min, MES buffer pH 5.5, 37 °C, n = 3
[6] = biological target: T1, recombinant human CES1 (rhCES1) (Homo sapiens, UniProt P23141); assay: Hydrolysis of ProTides by recombinant human CES1; type: biochemical; conditions: 20 μM prodrug, 40 ng/μL rhCES1, 20 min, Tris buffer pH 7.5, 37 °C, n = 3
T1 sequence (P23141 18-567): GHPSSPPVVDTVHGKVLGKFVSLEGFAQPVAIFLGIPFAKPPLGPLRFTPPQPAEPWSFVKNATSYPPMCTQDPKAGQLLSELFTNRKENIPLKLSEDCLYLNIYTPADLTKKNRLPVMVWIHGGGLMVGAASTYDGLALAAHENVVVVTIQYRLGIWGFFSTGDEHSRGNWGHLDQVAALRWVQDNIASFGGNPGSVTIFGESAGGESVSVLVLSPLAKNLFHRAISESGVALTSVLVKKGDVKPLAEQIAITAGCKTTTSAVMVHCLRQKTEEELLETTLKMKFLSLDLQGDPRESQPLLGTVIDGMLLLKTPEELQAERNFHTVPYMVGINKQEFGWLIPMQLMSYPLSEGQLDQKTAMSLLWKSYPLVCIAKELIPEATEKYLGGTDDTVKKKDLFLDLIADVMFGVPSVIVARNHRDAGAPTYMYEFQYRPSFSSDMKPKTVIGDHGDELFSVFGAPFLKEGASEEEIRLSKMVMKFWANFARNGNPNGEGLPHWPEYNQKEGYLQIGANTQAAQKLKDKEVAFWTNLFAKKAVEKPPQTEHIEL

[7] = cited from earlier work
[8] = cited from earlier work; remark: listed apart in the source
[9] = Ex vivo human plasma stability; conditions: 10 μM, 37 °C, 4 hours
[10] = Plasma PK after IV administration; conditions: for AUC(0-inf) / AUC(0-t) / Cmax / Vd / half-life / concentration at 15 min: male, mouse, plasma, iv; for AUC(0-inf) / AUC(0-t) / Cmax / Vd / half-life: Ces1c−/− (JAX stock # 014096)
[11] = 24 h, 10 μM
[12] = male, Ces1c−/− (Ces1c knockout), in vivo, iv
[13] = system: human bronchial epithelial cells; conditions: within 48 hours after drug treatment; cited from earlier work
[14] = system: VeroE6 cells; conditions: read-out: 50% cytotoxic concentration (CC50); cited from earlier work
[15] = system: iPSC-AT2; conditions: read-out: 50% cytotoxic concentration (CC50); cited from earlier work
[16] = system: lung virus titers; conditions: 2 days post infection, cited from earlier work
[17] = wild-type mice; cited from earlier work
[18] = cited from earlier work; remark: listed apart in the source
[19] = IV bolus, 54.4 μmole/kg, Ces1c−/− mice

Sequence of recombinant human CatA (rhCatA) (P10619 327-480): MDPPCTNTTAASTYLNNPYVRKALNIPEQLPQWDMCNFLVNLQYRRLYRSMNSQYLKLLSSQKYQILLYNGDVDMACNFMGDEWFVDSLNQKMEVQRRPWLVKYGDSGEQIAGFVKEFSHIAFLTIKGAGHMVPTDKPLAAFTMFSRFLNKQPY
Sequence of recombinant human CatA (rhCatA) (P10619 29-326): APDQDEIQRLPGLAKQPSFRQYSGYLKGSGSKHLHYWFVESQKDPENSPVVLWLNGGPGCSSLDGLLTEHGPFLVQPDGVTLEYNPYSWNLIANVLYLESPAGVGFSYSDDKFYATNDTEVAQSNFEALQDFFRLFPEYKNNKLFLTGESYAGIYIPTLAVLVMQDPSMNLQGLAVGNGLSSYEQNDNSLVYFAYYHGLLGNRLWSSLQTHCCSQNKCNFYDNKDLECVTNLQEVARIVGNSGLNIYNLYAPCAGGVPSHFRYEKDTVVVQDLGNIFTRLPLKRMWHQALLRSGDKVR

## O=[N+]([O-])c1ccc(OP(=O)(O)Oc2ccc([N+](=O)[O-])cc2)cc1 [BNPP, Bis-(p-nitrophenyl) phosphate]
[1]
  Effect of inhibitor on the formation of RDV-TP: did not significantly alter

## CC(C)C(=O)OC[C@H]1O[C@@](C#N)(c2ccc3c(N)ncnn23)[C@H](OC(=O)C(C)C)[C@@H]1OC(=O)C(C)C [GS-621763]
[2]
  Prodrug remaining in human intestine homogenate: could barely be detected
[3]
  Prodrug remaining in human liver homogenate: could barely be detected
[4]
  Prodrug form in plasma after oral administration: barely detected

## CC(C)OC(=O)[C@H](C)N[P@](=O)(OC[C@H]1O[C@@](C#N)(c2ccc3c(N)ncnn23)[C@H](O)[C@@H]1O)Oc1ccccc1 [IsoRDV]
[5]
  Activity of rhCatA for prodrug hydrolysis: 236.7 ± 172.8 pmol/min/μg protein
[6]
  Activity of rhCES1 for prodrug hydrolysis: 7.7 ± 1.4 pmol/min/μg protein
[7]
  Stability in human plasma: 1561 min
[8]
  logD: 1.1
[9]
  Hydrolyzed in human plasma: ~15%
[4]
  Oral bioavailability (estimated): less than 2%
  Prodrug form in plasma after oral administration: barely detected
[10]; [19]
  AUC0-∞ of the administered compound in plasma: 4,950.3 ± 628.2 h⋅nM
  CL/F of the administered compound: 0.28 ± 0.03 L⋅h^−1
  Vd (apparent distribution volume): 0.42 ± 0.17 L
  t1/2 of the administered compound in plasma: 1.04 ± 0.33 h
[10]; IV bolus, 54.4 μmole/kg, Ces1c−/− mice, AUC0-t(8h)
  AUC0-t of the administered compound in plasma: 4,941.6 ± 626.4 h⋅nM

## N#C[C@@]1(c2ccc3c(N)ncnn23)O[C@H](CO)[C@@H](O)[C@H]1O [Nuc]
[11]
  Reduction after incubation with human plasma: 5%
[12]
  RDV-TP concentrations in the mouse lung relative to estimated EC50/EC90: constantly below EC50
[13]
  RDV-TP levels, fold lower than RDV: at least 40 fold
[10]; [19]
  CL/F of the administered compound: 0.052 ± 0.002 L⋅h^−1
[10]; 54.4 μmole/kg
  AUC(0-inf): 26.3 µM·h
  AUC(0-t): 25.1 µM·h
  Cmax: 18.1 µM
  Vd: 0.47 ± 0.29 L
  half-life: 6.34 ± 4.01 h
  concentration at 15 min: 18.1 µM

## CCC(CC)COC(=O)[C@H](C)N[P@](=O)(OC[C@H]1O[C@@](C#N)(c2ccc3c(N)ncnn23)[C@H](O)[C@@H]1O)Oc1ccccc1 [RDV, remdesivir]
[5]
  Activity of rhCatA for prodrug hydrolysis: 1,786.5 ± 179.2 pmol/min/μg protein
[6]
  Activity of rhCES1 for prodrug hydrolysis: 15.5 ± 1.8 pmol/min/μg protein
[14]
  CC50: 101 µM
[15]
  CC50: 32.7 µM
[16]; 25 mg/kg twice daily
  Effect on lung virus titers: significantly reduced the lung virus titers
[16]; 50 mg/kg single dose daily
  Effect on lung virus titers: could not
[7]
  Half-life in human plasma: 1.15 h
  Half-life in human plasma ex vivo: 1.15 h
  Stability in human plasma: 69 min
[17]
  Plasma half-life in mice: < 5 min
[18]
  Plasma half-life in Ces1c−/− mice: ~ 25 min
[9]
  Hydrolyzed in human plasma: approximately 70%
[4]
  Prodrug form in plasma after oral administration: barely detected
[10]; [19]
  CL/F of the administered compound: 1.06 ± 0.44 L⋅h^−1
  Presence in plasma 4 hours after IV administration: barely detectable
[10]; 54.4 μmole/kg
  AUC(0-inf): 1.58 µM·h
  AUC(0-t): 1.57 µM·h
  Cmax: 1.37 µM
  Vd: 1.91 ± 0.94 L
  half-life: 1.25 ± 0.39 h
  concentration at 15 min: 1.37 µM
[10]; within 30 minutes after IV administration
  Portion of plasma RDV that disappeared: about 90%
